Laboratory results taken from ChEMBL document CHEMBL1137399, “Synthesis, structure-activity relationships, and antitumor studies of 2-benzoxazolyl hydrazones derived from alpha-(N)-acyl heteroaromatics” (J Med Chem, 2006).
Calls of active or inactive are those of the source. No cut-off for these calls is given here.

Tests used:
HeLa [1] = assay: Antiproliferative activity against HeLa cells by SRB assay; format: functional, cell-based; conditions: Homo sapiens
CCRF-CEM = assay: Antiproliferative activity against CCRF-CEM cells by MTT assay; format: functional, cell-based; conditions: Homo sapiens
Burkitts lymphoma cell = assay: Antiproliferative activity against Burkitt cells by MTT assay; format: functional, cell-based; conditions: Homo sapiens
HT-29 = assay: Antiproliferative activity against HT29 cells by SRB assay; format: functional, cell-based; conditions: Homo sapiens
HeLa [2] = assay: Antiproliferative activity against HeLa-mdr1 cells overexpressing P-glycoprotein in presence of verapamil by SRB assay; format: functional, cell-based; conditions: Homo sapiens
HL-60 = assay: Ratio for antiproliferative activity against HL60/AR cells to wild type HL60 by MTT assay; format: functional, Homo sapiens
OVCAR-3 = assay: Net cell kill against human OVCAR-3 cells by hollow fiber assay; format: functional, cell-based
SF-295 = assay: Net cell kill against human SF295 cells by hollow fiber assay; format: functional, cell-based

Row | IC50 (HeLa [1]) [nM] | IC50 (CCRF-CEM) [nM] | IC50 (Burkitts lymphoma cell) [nM] | IC50 (HT-29) [nM] | Compound | Activity (HeLa [2]) | Ratio IC50 (HL-60) | Activity (OVCAR-3) | Activity (SF-295)
1 | 153 | 6 | 6 | 851 | CCC/C(=N\Nc1nc2ccccc2o1)c1ccccn1 | – | – | – | –
2 | > 10000 | > 10000 | > 10000 | > 10000 | CC(C)(C)/C(=N\Nc1nc2ccccc2o1)c1ccccn1 | – | – | – | –
3 | 288 | – | 27 | 4780 | C/C(=N\Nc1nc2ccccc2o1)c1cccc[n+]1[O-] | – | – | – | –
4 | 4530 | 7040 | 5490 | 7760 | C/C(=N\Nc1nc2ccccc2o1)c1ccc2ccccc2n1 | – | – | – | –
5 | 100 | 140 | 30 | 40 | C/C(=N\Nc1nc2ccccc2o1)c1cc2ccccc2cn1 | inactive | 1.7 | Active | Active
6 | 210 | 230 | 42 | 110 | C/C(=N\Nc1nc2ccccc2o1)c1cc(C)ncn1 | – | – | – | –
7 | 770 | 24 | 5 | 1430 | C/C(=N\Nc1nc2ccccc2o1)c1ccccn1 | – | – | – | –
8 | 1860 | 1300 | 900 | 2140 | C/C(=N\Nc1nc2ccccc2o1)c1nccnc1C | – | – | – | –
9 | 1180 | 720 | 1300 | 2640 | C/C(=N\Nc1nc2ccccc2o1)c1cccnn1 | – | – | – | –
10 | > 100000 | > 100000 | > 100000 | > 100000 | C/C(=N\Nc1nc2ccccc2o1)c1cccnc1 | – | – | – | –
11 | 370 | 620 | 150 | 290 | C/C(=N\Nc1nc2ccccc2o1)c1cnc(C)cn1 | – | – | – | –
12 | 185 | 21 | 14 | 645 | CC(C)/C(=N\Nc1nc2ccccc2o1)c1ccccn1 | – | – | – | –
13 | 340 | 350 | 200 | 1930 | C/C(=N\Nc1nc2ccccc2o1)c1nccc2ccccc12 | – | – | – | –
14 | 42 | > 10000 | > 10000 | 219 | c1ccc(C/C(=N\Nc2nc3ccccc3o2)c2ccccn2)cc1 | – | – | – | –
15 | 180 | 130 | 30 | 270 | C/C(=N\Nc1nc2ccccc2o1)c1ncccn1 | – | – | – | –
16 | – | – | – | – | CC[C@]1(O)C[C@@H]2CN(CCc3c([nH]c4ccccc34)[C@@](C(=O)OC)(c3cc4c(cc3OC)N(C)[C@H]3[C@@](O)(C(=O)OC)[C@H](OC(C)=O)[C@]5(CC)C=CCN6CC[C@]43[C@@H]65)C2)C1 | Active | – | – | –
17 | > 50000 | > 50000 | > 50000 | > 50000 | C/C(=N\N(C)c1nc2ccccc2o1)c1ccccn1 | – | – | – | –
18 | 3390 | 2550 | 6270 | 6770 | C/C(=N\Nc1nc2ccccc2o1)c1ccc(C)nn1 | – | – | – | –
19 | 52 | 4 | 2 | 409 | CC/C(=N\Nc1nc2ccccc2o1)c1ccccn1 | – | – | – | –
20 | 500 | 360 | 144 | 190 | C/C(=N\Nc1nc2ccccc2o1)c1ccncn1 | – | – | – | –
21 | 4490 | – | 185 | 20600 | c1ccc(/C(=N/Nc2nc3ccccc3o2)C2CC2)nc1 | – | – | – | –
22 | 43 | 78 | 120 | 44 | c1ccc(/C(=N\Nc2nc3ccccc3o2)c2ccccn2)cc1 | – | – | – | –
23 | 156 | 44 | 12 | 6980 | c1ccc(C(=NNc2nc3ccccc3o2)c2ccccn2)nc1 | – | – | – | –
